According to patent publication US20070202138A1, “ANTIMICROBIAL COMPOSITIONS AND METHOD” (BIOFILM INNOVATIONS GROUP, LLC, priority 2006, published 2007):
≈ marks a conversion by molar mass, not a printed value.

Key:
in vitro = conditions: mouse
Method: (§1) The cells are grown in humidified incubators at 37° C. in an atmosphere of 5% carbon dioxide/air (v/v).

[1] = in vitro cytotoxicity, plating efficiency; conditions: mouse
Method: as §1

| Compound | CC50 (in vitro) [µg/mL] | CC50 [1] [µg/mL] |
| --- | --- | --- |
| CC(=O)Nc1ccc(O)cc1 [acetaminophen] | 1000 (≈ 6.62 mM) | – |
| CC(=O)Oc1ccccc1C(=O)O [aspirin] | 1500 (≈ 8.33 mM) | – |
| O=BOB(O)OB(O)OB=O [borax] | – | 2000 (≈ 12.7 mM) |
